Experimental data reported in patent US9926340B2, “NAD analogs and methods of using said NAD analogs in determining ribosylation of proteins with PARP mutants” (The Board of Regents of the University of Texas System, priority 2015, dated 2018).
“Also recorded” adds a separate entry of the source.

What was measured:
PARP-1 (L877A) = biological target: T1, PARP-1 (L877A) (Homo sapiens, UniProt P09874, L877A); test: PARP-1 enzyme kinetics assay (LC-HPLC of nicotinamide formation); format: biochemical; settings: 250 nM PARP-1(L877A), 10-500 μM analog, 25° C., 5 minutes
T1 construct: His10; made in house; host or cells: E. coli BL21(DE3) (inferred)
T1 sequence (P09874 whole entry L877A): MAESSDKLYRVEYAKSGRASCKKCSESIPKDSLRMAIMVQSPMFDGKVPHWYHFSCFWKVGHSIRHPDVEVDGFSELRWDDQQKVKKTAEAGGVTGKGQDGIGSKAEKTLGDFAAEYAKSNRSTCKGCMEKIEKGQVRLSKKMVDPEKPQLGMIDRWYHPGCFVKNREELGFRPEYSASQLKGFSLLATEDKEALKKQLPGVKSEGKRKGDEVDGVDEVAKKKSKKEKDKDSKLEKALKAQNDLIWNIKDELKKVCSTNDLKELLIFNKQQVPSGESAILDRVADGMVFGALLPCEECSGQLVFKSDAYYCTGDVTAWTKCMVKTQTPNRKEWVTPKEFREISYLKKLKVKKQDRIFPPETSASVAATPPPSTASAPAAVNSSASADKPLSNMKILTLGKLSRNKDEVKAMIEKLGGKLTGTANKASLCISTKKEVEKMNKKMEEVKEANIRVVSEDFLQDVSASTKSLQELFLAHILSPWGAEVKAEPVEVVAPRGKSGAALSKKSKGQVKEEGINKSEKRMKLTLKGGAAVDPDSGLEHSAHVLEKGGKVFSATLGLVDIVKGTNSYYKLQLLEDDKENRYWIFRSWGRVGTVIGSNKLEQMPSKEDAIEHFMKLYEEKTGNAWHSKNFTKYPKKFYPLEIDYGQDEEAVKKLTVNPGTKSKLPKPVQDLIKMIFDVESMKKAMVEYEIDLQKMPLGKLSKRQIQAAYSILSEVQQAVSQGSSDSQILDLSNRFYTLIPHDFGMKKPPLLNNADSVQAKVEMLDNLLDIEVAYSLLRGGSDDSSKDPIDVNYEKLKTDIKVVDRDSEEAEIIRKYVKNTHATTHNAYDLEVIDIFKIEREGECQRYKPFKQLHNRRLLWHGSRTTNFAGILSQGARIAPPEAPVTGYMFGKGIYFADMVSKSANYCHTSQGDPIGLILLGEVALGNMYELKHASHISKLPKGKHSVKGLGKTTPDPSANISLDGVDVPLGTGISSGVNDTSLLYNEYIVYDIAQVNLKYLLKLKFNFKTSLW
Method: The enzyme kinetics of wild-type and analog-sensitive mutants of human PARP-1 were determined essentially as previously described (Jiang et al., 2010). Purified PARP-1 proteins were incubated for 5 minutes in PARP Enzyme Kinetics Buffer (50 mM Tris.HCl, pH 7.9, 4 mM MgCl2) containing 0.5 mg/mL sonicated salmon sperm DNA (Stratagene) at 25° C. with 10, 20, 30, 50, 100, 250, and 500 μM NAD^+ or 8-Bu(3-yne)T-NAD^+. The concentrations of the purified PARP-1 proteins were (1) 25 nM for PARP-1 with NAD^+, (2) 50 nM for PARP-1(L877A) with NAD^+, and […] 250 nM for PARP-1 and PARP-1(L877A) with 8-bu(3-yne)T-NAD^+. The reactions were brought to 450 mM perchloric acid (HClO4) to stop them, incubated for 5 minutes on ice, and then brought to […] potassium carbonate (K2CO3) to quench them. The quenched reactions were centrifuged at maximum speed in a microcentrifuge at 4° C., and the supernatant containing small molecules from the automodification reaction was collected.
The supernatants from the extracted ADP-ribosylation reactions were analyzed using a Shimadzu LCMS-QP8000α with a Phenomenex Kinetex C18 column (150×4.6 mm, 5 μm XB-C18 100A) monitored at 260 nm. […] Quantitative values for the small molecules and metabolites were obtained by comparison to a standard curve. […]

[1] = biological target: T2, asPARP-1 in nuclei from Parp1−/− MEFs (Mus musculus, UniProt P11103, L876A); test: 8-Bu(3-yne)T-ADP-ribosylation reactions in intact nuclei; format: cell-based; settings: Parp1−/− MEF nuclei, 250 μM analog, 30 minutes at 25° C.
T2 construct: expressed in transfected cells; host or cells: Parp1-/- mouse embryonic fibroblasts, lentiviral transduction, isolated nuclei
T2 sequence (P11103 whole entry L876A): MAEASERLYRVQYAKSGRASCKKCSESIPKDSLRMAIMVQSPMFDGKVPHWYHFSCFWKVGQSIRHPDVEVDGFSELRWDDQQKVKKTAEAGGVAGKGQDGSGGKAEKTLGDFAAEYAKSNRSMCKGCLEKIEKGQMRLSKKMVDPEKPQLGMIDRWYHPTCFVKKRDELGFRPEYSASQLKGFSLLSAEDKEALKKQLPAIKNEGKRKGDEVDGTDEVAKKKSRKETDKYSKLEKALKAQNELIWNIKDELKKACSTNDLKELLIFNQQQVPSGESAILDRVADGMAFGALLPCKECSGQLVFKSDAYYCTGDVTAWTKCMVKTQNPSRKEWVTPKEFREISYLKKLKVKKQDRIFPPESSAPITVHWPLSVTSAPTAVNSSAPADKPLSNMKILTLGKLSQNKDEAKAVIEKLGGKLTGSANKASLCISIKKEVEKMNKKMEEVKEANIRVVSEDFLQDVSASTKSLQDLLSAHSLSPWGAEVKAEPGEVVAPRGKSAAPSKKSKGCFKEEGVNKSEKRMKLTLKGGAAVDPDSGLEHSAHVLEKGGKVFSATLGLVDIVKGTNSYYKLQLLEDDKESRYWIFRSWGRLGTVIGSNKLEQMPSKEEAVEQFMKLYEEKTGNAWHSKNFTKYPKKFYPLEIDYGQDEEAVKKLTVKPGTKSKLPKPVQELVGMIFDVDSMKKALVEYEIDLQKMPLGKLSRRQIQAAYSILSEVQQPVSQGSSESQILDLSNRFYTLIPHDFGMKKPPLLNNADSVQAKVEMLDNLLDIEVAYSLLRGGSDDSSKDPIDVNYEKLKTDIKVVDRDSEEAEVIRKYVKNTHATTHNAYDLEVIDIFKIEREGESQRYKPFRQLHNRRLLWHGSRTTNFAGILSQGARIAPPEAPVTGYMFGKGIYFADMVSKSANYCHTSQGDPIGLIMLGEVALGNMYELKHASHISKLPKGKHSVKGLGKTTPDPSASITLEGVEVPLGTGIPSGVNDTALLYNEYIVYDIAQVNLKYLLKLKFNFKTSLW
Method: 50% confluent MEF cells expressing asPARP-1 were harvested with cold PBS using a rubber policeman and collected by centrifugation for 5 minutes at 800 RCF at 4° C. Cells were resuspended for 10 minutes to facilitate cell swelling in Nuclear Isolation Buffer (10 mM HEPES, pH 8.0, 2 mM MgCl2, 3 mM CaCl2, 300 mM Sucrose, 1 mM DTT, 1 mM PMSF, 4 mM Benzamidine, 1 μM Aprotinin, 100 μM Leupeptin, 1 μM Pepstatin A, and 1 in 250 parts SIGMA Phosphatase Inhibitor Cocktails 2 and 3). Nuclei were released from cells by addition of NP-40 to 0.65% under medium vortex and immediately collected by centrifugation at 10,000 RCF for 1 minute at 4° C. […]
Following 8-Bu(3-yne)T-ADP-ribosylation in intact nuclei from MEFs as described above, the nuclei were washed once with Nuclei Click Reaction Buffer (10 mM HEPES, pH 8.0, 10 mM NaCl, 10 mM spermidine, 0.1% NP-40, with freshly added protease inhibitors) and then clicked twice to Alexa Fluor 488 by the sequential addition of 100 μM azido-Alexa Fluor 488 (Life Technologies), a pre-formed complex of CuSO4:THPTA (1.0 mM:5.0 mM), and 5 mM sodium ascorbate. […] Fluorescence was visualized via confocal microscopy using a Leica TCS SP2 Confocal Microscope.

Which “enzyme kinetics compared to PARP-1 and NAD+” value (PARP-1 (L877A)) does the source give for `C#CCCSc1nc2c(N)ncnc2n1[C@@H]1O[C@H](COP(=O)(O)OP(=O)(O)OC[C@H]2O[C@@H]([n+]3cccc(C(N)=O)c3)C(O)C2O)[C@H](O)C1O` (some centres unmarked) [8-Bu(3-yne)T-NAD^+] here?
The value was “nearing wild-type enzyme kinetics”.

What about the “ADP-ribosylation in intact nuclei expressing asPARP-1” value [1] of the same compound?
The value was “catalytically active; also recorded: clearly evident”.
